Measurements published in patent US8802597B2, “Herbicidal pyrimidines” (E I du Pont de Nemours and Company, priority 2003, dated 2014).

How the values were obtained:
Assay in all cases: Test F pre/postemergence
Type in all cases: in vivo
[1] = system: bentgrass (Agrostis palustris)
Excerpt: (§1) Seeds or nutlets of plant species selected from (turf) bermudagrass (Cynodon dactylon), Kentucky bluegrass (Poa pratensis), bentgrass (Agrostis palustris), hard fescue (Festuca ovina), large crabgrass (Digitaria sanguinalis), goosegrass (Eleusine indica), dallisgrass (Paspalum dilatatum), annual bluegrass (Poa annua), common chickweed (Stellaria media), dandelion (Taraxacum officinale), white clover (Trifolium repens), and yellow nutsedge (Cyperus esculentus) were planted and treated preemergence with the test chemical formulated in a non-phytotoxic solvent mixture which included a surfactant.
(§2) At the same time, plants selected from these crop and weed species were treated with postemergence applications of the test chemical formulated in the same manner. Plants ranged in height from 2 to 18 cm (1- to 4-leaf stage) for postemergence treatments. Treated plants and controls were maintained in a greenhouse for 12 to 14 days, after which time all species were compared to controls and visually evaluated. Plant response ratings, summarized in Table F, are based on a scale of 0 to 100 where 0 is no effect and 100 is complete control. A dash (-) response means no test result.

[2] = system: Kentucky bluegrass (Poa pratensis)
Excerpt: as §1, §2

[3] = system: dallisgrass (Paspalum dilatatum)
Excerpt: as §1, §2

[4] = system: annual bluegrass (Poa annua)
Excerpt: as §1, §2

[5] = system: hard fescue (Festuca ovina)
Excerpt: as §1, §2

[6] = system: white clover (Trifolium repens)
Excerpt: as §1, §2

[7] = system: dandelion (Taraxacum officinale)
Excerpt: as §1, §2

[8] = system: large crabgrass (Digitaria sanguinalis)
Excerpt: as §1, §2

[9] = system: common chickweed (Stellaria media)
Excerpt: as §1, §2

Structure (SMILES): CCOC(=O)c1nc(C2CC2)nc(N)c1Br [Compound 1, ethyl 6-amino-5-bromo-2-cyclopropyl-4-pyrimidinecarboxylate]
- Plant response rating (0 to 100 scale) ([1]; Postemergence, 31 g ai/ha): 0
- Plant response rating (0 to 100 scale) ([1]; Postemergence, 62 g ai/ha): 30
- Plant response rating (0 to 100 scale) ([1]; Postemergence, 125 g ai/ha): 50
- Plant response rating (0 to 100 scale) ([1]; Postemergence, 250 g ai/ha): 50
- Plant response rating (0 to 100 scale) ([1]; Postemergence, 500 g ai/ha): 70
- Plant response rating (0 to 100 scale) ([1]; Preemergence, 31 g ai/ha): 50
- Plant response rating (0 to 100 scale) ([1]; Preemergence, 62 g ai/ha): 60
- Plant response rating (0 to 100 scale) ([1]; Preemergence, 125 g ai/ha): 60
- Plant response rating (0 to 100 scale) ([1]; Preemergence, 250 g ai/ha): 90
- Plant response rating (0 to 100 scale) ([1]; Preemergence, 500 g ai/ha): 100
- Plant response rating (0 to 100 scale) ([2]; Postemergence, 31 g ai/ha): 20
- Plant response rating (0 to 100 scale) ([2]; Postemergence, 62 g ai/ha): 0
- Plant response rating (0 to 100 scale) ([2]; Postemergence, 125 g ai/ha): 0
- Plant response rating (0 to 100 scale) ([2]; Postemergence, 250 g ai/ha): 0
- Plant response rating (0 to 100 scale) ([2]; Postemergence, 500 g ai/ha): 30
- Plant response rating (0 to 100 scale) ([2]; Preemergence, 31 g ai/ha): 0
- Plant response rating (0 to 100 scale) ([2]; Preemergence, 62 g ai/ha): 30
- Plant response rating (0 to 100 scale) ([2]; Preemergence, 125 g ai/ha): 30
- Plant response rating (0 to 100 scale) ([2]; Preemergence, 250 g ai/ha): 40
- Plant response rating (0 to 100 scale) ([2]; Preemergence, 500 g ai/ha): 80
- Plant response rating (0 to 100 scale) ([3]; Postemergence, 31 g ai/ha): 0
- Plant response rating (0 to 100 scale) ([3]; Postemergence, 62 g ai/ha): 0
- Plant response rating (0 to 100 scale) ([3]; Postemergence, 125 g ai/ha): 15
- Plant response rating (0 to 100 scale) ([3]; Postemergence, 250 g ai/ha): 75
- Plant response rating (0 to 100 scale) ([3]; Postemergence, 500 g ai/ha): 60
- Plant response rating (0 to 100 scale) ([3]; Preemergence, 31 g ai/ha): 10
- Plant response rating (0 to 100 scale) ([3]; Preemergence, 62 g ai/ha): 35
- Plant response rating (0 to 100 scale) ([3]; Preemergence, 125 g ai/ha): 45
- Plant response rating (0 to 100 scale) ([3]; Preemergence, 250 g ai/ha): 70
- Plant response rating (0 to 100 scale) ([3]; Preemergence, 500 g ai/ha): 95
- Plant response rating (0 to 100 scale) ([4]; Postemergence, 31 g ai/ha): 35
- Plant response rating (0 to 100 scale) ([4]; Postemergence, 125 g ai/ha): 45
- Plant response rating (0 to 100 scale) ([4]; Postemergence, 250 g ai/ha): 70
- Plant response rating (0 to 100 scale) ([4]; Postemergence, 500 g ai/ha): 95
- Plant response rating (0 to 100 scale) ([4]; Preemergence, 31 g ai/ha): 20
- Plant response rating (0 to 100 scale) ([4]; Preemergence, 62 g ai/ha): 65
- Plant response rating (0 to 100 scale) ([4]; Preemergence, 125 g ai/ha): 45
- Plant response rating (0 to 100 scale) ([4]; Preemergence, 250 g ai/ha): 70
- Plant response rating (0 to 100 scale) ([4]; Preemergence, 500 g ai/ha): 70
- Plant response rating (0 to 100 scale) ([5]; Postemergence, 31 g ai/ha): 0
- Plant response rating (0 to 100 scale) ([5]; Postemergence, 62 g ai/ha): 0
- Plant response rating (0 to 100 scale) ([5]; Postemergence, 125 g ai/ha): 0
- Plant response rating (0 to 100 scale) ([5]; Postemergence, 250 g ai/ha): 0
- Plant response rating (0 to 100 scale) ([5]; Postemergence, 500 g ai/ha): 0
- Plant response rating (0 to 100 scale) ([5]; Preemergence, 31 g ai/ha): 50
- Plant response rating (0 to 100 scale) ([5]; Preemergence, 62 g ai/ha): 60
- Plant response rating (0 to 100 scale) ([5]; Preemergence, 125 g ai/ha): 60
- Plant response rating (0 to 100 scale) ([5]; Preemergence, 250 g ai/ha): 60
- Plant response rating (0 to 100 scale) ([5]; Preemergence, 500 g ai/ha): 90
- Plant response rating (0 to 100 scale) ([6]; Postemergence, 31 g ai/ha): 70
- Plant response rating (0 to 100 scale) ([6]; Postemergence, 62 g ai/ha): 90
- Plant response rating (0 to 100 scale) ([6]; Postemergence, 125 g ai/ha): 100
- Plant response rating (0 to 100 scale) ([6]; Postemergence, 250 g ai/ha): 100
- Plant response rating (0 to 100 scale) ([6]; Postemergence, 500 g ai/ha): 100
- Plant response rating (0 to 100 scale) ([6]; Preemergence, 31 g ai/ha): 80
- Plant response rating (0 to 100 scale) ([6]; Preemergence, 62 g ai/ha): 100
- Plant response rating (0 to 100 scale) ([6]; Preemergence, 125 g ai/ha): 100
- Plant response rating (0 to 100 scale) ([6]; Preemergence, 250 g ai/ha): 100
- Plant response rating (0 to 100 scale) ([6]; Preemergence, 500 g ai/ha): 100
- Plant response rating (0 to 100 scale) ([7]; Postemergence, 31 g ai/ha): 50
- Plant response rating (0 to 100 scale) ([7]; Postemergence, 62 g ai/ha): 75
- Plant response rating (0 to 100 scale) ([7]; Postemergence, 125 g ai/ha): 75
- Plant response rating (0 to 100 scale) ([7]; Postemergence, 250 g ai/ha): 85
- Plant response rating (0 to 100 scale) ([7]; Postemergence, 500 g ai/ha): 95
- Plant response rating (0 to 100 scale) ([7]; Preemergence, 31 g ai/ha): 35
- Plant response rating (0 to 100 scale) ([7]; Preemergence, 62 g ai/ha): 95
- Plant response rating (0 to 100 scale) ([7]; Preemergence, 125 g ai/ha): 100
- Plant response rating (0 to 100 scale) ([7]; Preemergence, 250 g ai/ha): 100
- Plant response rating (0 to 100 scale) ([7]; Preemergence, 500 g ai/ha): 100
- Plant response rating (0 to 100 scale) ([8]; Postemergence, 31 g ai/ha): 0
- Plant response rating (0 to 100 scale) ([8]; Postemergence, 62 g ai/ha): 45
- Plant response rating (0 to 100 scale) ([8]; Postemergence, 125 g ai/ha): 70
- Plant response rating (0 to 100 scale) ([8]; Postemergence, 250 g ai/ha): 75
- Plant response rating (0 to 100 scale) ([8]; Postemergence, 500 g ai/ha): 90
- Plant response rating (0 to 100 scale) ([8]; Preemergence, 31 g ai/ha): 15
- Plant response rating (0 to 100 scale) ([8]; Preemergence, 62 g ai/ha): 40
- Plant response rating (0 to 100 scale) ([8]; Preemergence, 125 g ai/ha): 85
- Plant response rating (0 to 100 scale) ([8]; Preemergence, 250 g ai/ha): 95
- Plant response rating (0 to 100 scale) ([8]; Preemergence, 500 g ai/ha): 100
- Plant response rating (0 to 100 scale) ([9]; Postemergence, 31 g ai/ha): 0
- Plant response rating (0 to 100 scale) ([9]; Postemergence, 62 g ai/ha): 80
- Plant response rating (0 to 100 scale) ([9]; Postemergence, 125 g ai/ha): 85
- Plant response rating (0 to 100 scale) ([9]; Postemergence, 250 g ai/ha): 85
- Plant response rating (0 to 100 scale) ([9]; Postemergence, 500 g ai/ha): 100
- Plant response rating (0 to 100 scale) ([9]; Preemergence, 31 g ai/ha): 80
- Plant response rating (0 to 100 scale) ([9]; Preemergence, 62 g ai/ha): 100
- Plant response rating (0 to 100 scale) ([9]; Preemergence, 125 g ai/ha): 100
- Plant response rating (0 to 100 scale) ([9]; Preemergence, 250 g ai/ha): 100
- Plant response rating (0 to 100 scale) ([9]; Preemergence, 500 g ai/ha): 100
